Experimental data from patent US20110294992A1, “METAL RESPONSIVE MRI-AGENTS” (The Regents of the University of California, priority 2010, published 2011).
Read-outs that look alike come from different tables or passages of the source. Marks after values point to notes of the source that are not given here.

Columns and labels:
[1] = see reference 90, cited from earlier work
[2] = Dysprosium-induced 17O NMR shift (DIS) experiments for q; format: physicochemical; details: for −Δ ppm/[Dy] (DIS slope): no Cu^+
Method: FIG. 8. Plot of [DyCG2] vs. −Δ ppm of the ^17O signal of H2O in the absence and presence of 1 equiv Cu^+. Spectra were acquired at room temperature in 20 mM HEPES buffer, pH 7, at a ^17O Larmor frequency of 67.8 MHz.
To circumvent these issues, we turned our attention to an alternative method for obtaining q values, namely the application of ^17O NMR spectroscopy to Dy^3+ analogs of the CG sensors (DyCG2-6).^114 Specifically, interactions of water ligands with paramagnetic Dy^3+ ions lead to an upfield shift of the ^17O signals of H2O in a manner proportional to both the concentration of Dy^3+ and q. Moreover, this lanthanide-induced shift is largely insensitive to the non-water ligands coordinated to the paramagnetic metal center.^114 Dysprosium-induced shift (DIS) experiments for CG2 and CG3 were performed in 20 mM HEPES buffered to pH 7; CG4 and CG5 spectra were acquired in 10% acetonitrile in 20 mM HEPES buffered to pH 7 owing to solubility and stability of the Cu^+-bound complexes at higher Dy^3+ concentrations required for the DIS measurements (1-200 mmol/kg H2O). Dy concentrations were calculated using molality (with respect to H2O) since the ^17O shift represents the interaction between Dy^3+ and H2O; addition of CH3CN aids in stabilizing certain complexes but should not affect the DIS. The spectral results were calibrated to a DyCl3 standard (q=9) to determine the number of bound water molecules for the CG sensors with and without added Cu^+. A plot of varying DyCl3 concentrations versus DIS in pH 7 HEPES buffer has a slope of 324 ppm/(mol/kg H2O), which corresponds to a 36 ppm/(mol/kg H2O) shift per bound water molecule.
The effects of DyCG2 on the chemical shift of ^17O-labeled H2O were determined in the absence and presence of 1 equiv Cu^+ at various concentrations of Dy^3+ (FIG. 8). In the absence of Cu^+, the measured ^17O shift response for DyCG2 is 9 ppm/(mol/kg H2O), corresponding to q=0.3. When 1 equiv of Cu^+ is added, the observed shift response increases to 72 ppm/(mol/kg H2O), corresponding to q=2.0. […] DIS measurements of DyCG4 and DyCG5 without Cu^+ show slopes of 7 ppm/(mol/kg H2O) (q=0.2) and 12 ppm/(mol/kg H2O) (q=0.3), respectively. Cu^+ binding increases the DIS slopes for DyCG4 and DyCG5 to […] ([…]) and 41 ppm/(mol/kg H2O) (q=1.0), respectively.

[3] = in water, measured at 10 MHz; cited from earlier work
[4] = Nuclear magnetic relaxation dispersion (NMRD) profiles, Solomon-Bloembergen-Morgan fit; format: physicochemical; details: copper free
Method: FIG. 9. ^1H Nuclear magnetic relaxation dispersion profiles of CG3 and CG3+Cu^+ acquired at 25° C. The solid lines represent the best fit profiles.
As a secondary, independent set of experiments to further probe the mechanisms of copper ion sensing by the CG contrast agents, we also performed nuclear magnetic relaxation dispersion (NMRD) measurements of these sensors in the absence and in the presence of copper ions using a field cycling relaxometer (FIG. 9). The profiles obtained were analyzed following Solomon-Bloembergen-Morgan theory^36-38 for the inner-sphere relaxivity and the Freed model^115 for the outer-sphere relaxivity, fixing the diffusion coefficient (D) at […], the distance between Gd^3+ and the inner sphere water protons (r) at 3.1 Å, and the inner sphere exchange lifetime (τM) at 160 ns, the reported value for the parent complex Gd^3+-DO3A. Profiles were obtained for all compounds in the copper-free state. Profiles in the presence of Cu^n+ were obtained for CG2-4 (Cu^+) and CG6 (Cu^2+).
In fact, the measured outer-sphere relaxivities were so low that, in order to obtain a reasonable fit, the distance of closest approach of outer-sphere water protons (a) was allowed to vary. The distances obtained for the CG complexes (4.2-4.8 Å) were markedly longer than what is observed for typical Gd^3+ contrast agents with greater water access (3.8-4 Å). These values correlate with the copper-free relaxivities of CG2-6; longer a values give lower relaxivities and shorter a values give higher relaxivities. For Cu^+-sensing agents CG2-4, the estimated change in q of 2 as determined by DIS measurements was also observed in the fitted NMRD data. In fact, any attempt to fit the observed NMRD profiles with q=1 led to very poor agreement between experimental and calculated values. The change in q of 1 for CG6 upon addition of Cu^2+ as determined by NMRD is consistent with the lower turn-on response observed with this complex compared to CG2-4. The reduced q modulation for CG6 relative to CG2-4 could indicate that the carboxylic acid moiety used for Cu^2+ binding also interacts with the Gd^3+ center in the Cu^2+-bound state. The fitted rotational correlation times (τR) for copper-bound CG complexes all fall within the range expected for Gd^3+ complexes with molecular weights of 700-800 D. τR values for copper-free CG2-6 were fixed to values close to their copper-bound analogues as fits of NMRD data for q=0 complexes are not sensitive to small changes in τR. The values of Δ^2 (average quadratic transient zero field splitting), τv (electronic correlation time), and τs0 (electronic relaxation time at zero field), which govern the electronic relaxation time, are relatively similar to each other. These NMRD values are closer to those of Gd^3+-DTPA than Gd^3+-DOTA, reflecting the asymmetry of CG2-6.^64

[5] = Metal ion selectivity of relaxivity response (competing metal ions alone or with added copper); format: physicochemical; details: relaxivity at 60 MHz, 20 mM HEPES, pH 7, 37° C.
Method: FIG. 6. Relaxivity responses of CG2 to various metal ions. White bars represent the addition of an excess of the appropriate metal ion (10 mM for Na^+, 2 mM for K^+, Mg^2+, and Ca^2+, and 0.2 mM for Fe^2+, Fe^3+, Cu^2+) to a 0.2 mM solution of CG2. Response to Zn^2+ was measured both at 0.2 mM Zn^2+ (Zn^2+1×) and 2 mM Zn^2+ (Zn^2+10×). Black bars represent the subsequent addition of 0.2 mM Cu^+ to the CG2 solution. Relaxivity measurements were acquired at 37° C. in 20 mM HEPES buffer, pH 7, at a proton Larmor frequency of 60 MHz.
The potential ability of this new family of CG sensors to sense bioavailable copper pools in either or both its predominant oxidation states represents a significant advance over the initial CG1 compound.

[6] = Longitudinal relaxivity (r1) turn-on response to Cu+ from T1 measurements at 60 MHz; format: physicochemical; details: pH 7, 37° C.
Method: (§1) The longitudinal relaxivity values for the CG contrast agents in the absence or presence of copper ions were determined using T1 measurements at 60 MHz. Studies were performed at 37° C. in 20 mM HEPES buffered to pH 7, and solutions of the purified CG sensors for relaxivity experiments contained 0.2 mM Gd^3+ as determined by ICP-OES. Spectroscopic data are collected in Table 1.
Upon addition of up to 1 equiv of copper ions, the relaxivity values of the CG contrast agents increase, establishing the ability of these probes to sense copper using the MR modality (Table 1, FIG. 3). CG2, CG3, CG4, and CG5 respond to Cu^+ with relaxivity increases ranging from 92% to 360%. […] These values represent the largest relaxivity enhancements observed to date for metal-activated MR contrast agents and a ca. 9-fold improvement in copper ion response compared to CG1 (41% increase). The observed differences in turn-on Cu^+ responses for benzyl-substituted CG4 (290% increase) versus methyl-substituted CG5 (92% increase) with the same pyridyl-thioether receptor show the marked effects that small peripheral substitutions can have on relaxivity properties.

[7] = Longitudinal relaxivity (r1) from T1 measurements at 60 MHz, absence of copper; format: physicochemical; details: no copper; 60 MHz, 20 mM HEPES buffer, pH 7, 37° C., 0.2 mM Gd^3+
Method: as §1
Nuclear magnetic relaxation dispersion (NMRD) experiments provide supporting evidence for this proposal (vide infra).

[8] = Apparent Kd for Cu+ by UV-visible absorption with competing ligand thiourea; format: binding; details: 20 mM HEPES buffer, pH 7, 25° C., 1:1 stoichiometry assumed, read-out: Kd (apparent dissociation constant)
Method: FIG. 5. Normalized absorbance response of 0.2 mM CG2-6 to buffered Cu^+ (CG2-5) or Cu^2+ (CG6) solutions for Kd value determination. Spectra were acquired in 20 mM HEPES, pH 7.

[9] = Electrochemical Cu2+/Cu+ reduction potentials of copper-bound CG complexes; format: physicochemical; details: PBS buffer, pH 7.4
Method: CG6 is a unique member of the CG family that is equally responsive to both Cu^+ and Cu^2+. Addition of either Cu^+ or Cu^2+ to CG6 triggers a maximum 73% relaxivity turn-on from r1=2.2 mM^−1s^−1 to r1=3.8 mM^−1s^−1. […] On the other hand, copper-bound CG6, which responds to both Cu^+ and Cu^2+, has the least positive Cu^2+/Cu^+ reduction potential at +0.13 V.

[Cl][Dy]([Cl])[Cl] [DyCl3, reference compound]
q of calibration standard ([1]; 20 mM HEPES, pH 7): 9^a | q of calibration standard ([1]; 10% CH3CN in 20 mM HEPES pH 7): 9^a | −Δ ppm/[Dy] (DIS slope) ([2]; 20 mM HEPES, pH 7): 324 ppm/(mol/kg H2O) | −Δ ppm/[Dy] (DIS slope) ([2]; 10% CH3CN in 20 mM HEPES pH 7): 362 ppm/(mol/kg H2O) | shift per bound water molecule ([2]; 10% acetonitrile in 20 mM pH 7 HEPES buffer): 40 ppm/(mol/kg H2O) | shift per bound water molecule ([2]; pH 7 HEPES buffer): 36 ppm/(mol/kg H2O)

[Cu+2] [Cu^2+]
r1 value [3]: 1.0 mM⁻¹ s⁻¹

CCSCCN(C)Cc1cccc(CN2CCN(CC(=O)[O-])CCN(CC(=O)[O-])CCN(CC(=O)[O-])CC2)n1.[Gd+3] [CG5]
τs0 (electronic relaxation time at zero field) [4]: 95 ps | r1p 20 MHz 25° C. ([4]; 0.5 mM, 20 mM HEPES pH 7): 1.6 mM⁻¹ s⁻¹ | a (distance of closest approach of outer-sphere water protons) ([4]; best-fit value): 4.8 ± 0.12 Å | Δ^2 (average quadratic transient zero field splitting) ([4]; best-fit value): 3.5 ± 0.8 10^19 s^−2 | τv (electronic correlation time) ([4]; best-fit value): 25 ± 4.2 ps | q ([4]; fixed in the fitting procedure): 0^c | τR (rotational correlation time) ([4]; not experimentally determined, assumed equal to corresponding q ≠ 0 complex (CG5: average of the other complexes)): 100^e ps | redox specificity of relaxivity response (Cu^+ vs Cu^2+) [5]: give turn-on relaxivity increases with Cu^+ but do not respond to Cu^2+ | % increase in r1 ([6]; 1 equiv Cu^+ vs no Cu, 20 mM HEPES): 92% | r1 (1 equiv Cu) ([6]; 1 equiv Cu^+, 20 mM HEPES buffer): 2.3^b mM^−1s^−1 | r1 (no Cu) [7]: 1.2 mM⁻¹ s⁻¹ | Kd [8]: 0.032 nM | Cu^2+/+ E1/2 [9]: 0.34 V vs. SHE
